In US20250034139A1, “AMINE COMPOUNDS HAVING ANTI-INFLAMMATORY, ANTIFUNGAL, ANTIPARASITIC, AND ANTICANCER ACTIVITY” (PHARMA CINQ, LLC, priority 2013, published 2025):
In brackets after ≈: the same amount, converted by molar mass.

Assays:
S. cerevisiae = test: Example I: Saccharomyces cerevisiae growth inhibition (OD 600 nm); type: cell-based; settings: Saccharomyces cerevisiae, 18 hour incubation at 30° C., OD 600 nm, XLfit; for IC50: read-out: IC50, uM (50% inhibition of fungal growth); for MIC: read-out: MIC, uM (99% of inhibition of fungal growth)
Protocol: An overnight culture of S. cerevisiae was dilution in YPD broth to concentration of 40,000/ml and 150 μl/well was plated in 96 well plates. Compounds were then added to each well with concentration ranged from 4 to 50 μM as final concentration. The plates were inoculated at 30° C. overnight with shaking at 220 rpm and absorbance at 600 nm was read after 18 hour incubation.
• 1. One days prior to the inoculum preparation, pick a single colony of S. cerevisiae from the Sabouraud Dextrose Agar plate using the inoculum loop and inoculate into a 50 mL tube containing 10 ml of YPD growth medium • 2. Incubate at 30° C. with shaking at 220 rpm for 24 hours with loosen lid to allow air in and facilitates growth. • 3. Examine an aliquot of the culture under a microscope for yeast cell morphology and lack of bacterial contamination. • 4. Dilute the overnight culture with YPD medium at 1:30 dilution (70 ul to 2.1 ml) and count the number of cells as 4,230,000/ml. • 5. Mix 620 μl of 1:30 dilution and 64.4 ml YPD to make final concentration of 40,000/ml cells • 6. Plated 144 μl/well in four 96-well plates.
• 1. From 10 mM DMSO stock solutions, make serial dilutions of compounds to 0.1, 0.2, 0.3, 0.63 and 1.25 mM solutions • 2. Add 6 μl each of diluted compound solutions per well in duplicates. The final concentrations were 0, 4, 8, 12, 25 and 50 micromolar. • 3. Incubated all plates at 30 C for overnight (˜18 hours) with 220 rpm shaking. • 4. Read absorbance at OD600 for each plate on Spectra Max Plus plate reader. • 5. Calculate the % inhibition of each compound against the DMSO treated cell and plotted.

[1] = test system: PC-3 prostate cancer cells; test: Example T: sensitisation of PC-3 cells to doxorubicin, oxaliplatin, paclitaxel or vincristine, Wst1; type: cell-based, human; settings: PC-3 cells, 72 hours; for viability at 0.4 µM: compound 0.4 μM alone; for Doxorubicin 3.5 μM: percent cell survival / Oxaliplatin 100 μM: percent cell survival / Paclitaxel 50 μM: percent cell survival / Vincristine 100 nM: percent cell survival: chemotherapy agent alone normalized to 100%
THP-1 cells [2] = test: Example D: LPS-triggered THP-1 cell death assay, acute/5-hour and chronic/48-hour; type: cell-based, Human; settings: for Viable cell percent change, Chronic/48-hour, Mean: 10 ng/ml LPS, 0.1 μM test compound; for activity relative to AC in the LPS-triggered THP-1 cell death assay, in words: 0.1 μM, 5-hour and 48-hour time points
Protocol: Compounds of the invention were tested at 0.1 μM versus AC in the LPS-triggered THP-1 cell death assay. Both acute/5-hour and chronic/48-hour phases of cell death were assessed. Compounds were screened in batches with DMSO as the negative control and AC as the high activity control.

[3] = test system: 4T1 murine breast cancer cells; test: Example S: in vitro anticancer screen, 4T1 cells, Wst1; type: cell-based, mouse; settings: Mus musculus, 4T1, 18 h, 18 hr, Wst1; for viability at 1 µM: read-out: 4T1 1 μM, percent of cancer cell survival relative to vehicle treated cells; for viability at 5 µM: read-out: 4T1 5 μM, percent of cancer cell survival relative to vehicle treated cells
Summary of the method: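 Read-out is Wst1 absorbance (450 nm, reference 630 nm) after roughly 2 hr dye incubation, giving percent cell survival versus vehicle. Before that, compounds at 1 μM or 5 μM were applied for 18 hr to 4T1 cells plated at 1×10^4 per well.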

[4] = test system: PC3 human prostate cancer cells; test: Example S: in vitro anticancer screen, PC-3 cells, Wst1; type: cell-based; settings: Homo sapiens, PC-3, approximately 20 hours, Wst1, read-out: PC-3, percent of cancer cell survival relative to vehicle treated cells
Summary of the method: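 Values give percent survival relative to vehicle, read by Wst1 absorbance (450/630 nm) after 2 h dye incubation, in triplicate. Cells were seeded at 2×10^4/well and treated about 20 h with compound at 0.4, 0.5 or 2.5 μM, depending on compound.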

Trichophyton rubrum = test: Example J: Trichophyton rubrum growth inhibition, scoring by eye; type: cell-based; settings: Trichophyton rubrum, 144 h; 6 days at 30° C., tested 6 to 40 μM; read-out: MIC, μM (maximum inhibition concentration, scoring by eye)
Protocol: Trichophyton grown on two agar plates were collected by scraping into 10 ml saline and filtered through 8 μm filters. […] This experiment included some active compounds from previous experiment and added several untested compounds. […] Following table listed the maximum inhibition concentration (MIC) based on scoring by eye. Scrape frozen Trichophyton culture from ATCC vial and suspended in 100 μl PDB, and then plate on a PDA plate. Incubate plate at 30 C for 4 days. The plate was covered almost full. […] Take OD of collected solution at 520 nm and 600 nm: […] Part-II: […] Add 6 μl each of diluted compound solutions per well in triplicates. […] Wrap the plates with […] incubate all plates at 30° C. for 6 days. • Take picture of the plates on KODAK imager with 17 captures of 1.5 sec/capture for total of 25.5 second exposure.

[5] = test system: Candida albicans strain 3153; test: Example H: Candida albicans growth inhibition (OD 600 nm); type: cell-based; settings: for MIC: Candida albicans, 3153, 24 hrs at 30° C., YPD, XLfit, read-out: MIC (uM) (99% of inhibition of fungal growth); for IC50: Candida albicans, 3153, read-out: IC50 (uM) (50% inhibition of fungal growth), 24 hrs at 30° C., YPD, XLfit
Summary of the method: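 Growth inhibition computed as % versus DMSO control from OD600 after ~24 h at 30° C. Inoculum: washed overnight YPD culture of strain 3153 at 3.5×10^4 CFU/ml in YPD; final compound concentrations 0, 5, 10, 16, 22, 30, 40 μM, duplicate wells.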

THP-1 cells [6] = test: Example C: compound screen, viable THP-1 cell count after 5 hours +/- LPS; type: cell-based, Human; settings: for ability to inactivate pro-inflammatory THP-1 cells, in words (relative to benchmark AC): LPS-treated THP-1 cells
From the text: Background: THP-1 is a human acute myeloid leukemia (AML) cell line that can be induced into a macrophage-like cell with vitamin-D3 (vit-D3). In the macrophage, LPS (lipopolysaccharide; endotoxin) stimulation of toll-like receptor 4 (TLR-4) leads to NF-κB activation and secretion of inflammatory cytokines but also the priming of programmed death pathways through RIP and Caspase 8. The balance of this complex regulatory network is dependent on highly specific kinases, enzymes that require ATP. Disruption of either cytosolic pH or ATP availability/energy level uncouples this control network and the can macrophage shift away from production of inflammatory cytokines towards a programmed death event, which has the net effect of limiting inflammatory damage.

[7] = Homo sapiens, Wst1, vehicle = 100, read-out: No Chemo: percent cell survival
[8] = compound 0.4 μM + doxorubicin 3.5 μM
[9] = compound 0.4 μM + oxaliplatin 100 μM
[10] = compound 0.4 μM + paclitaxel 50 μM
[11] = compound 0.4 μM + vincristine 100 nM

Compound | IC50 (S. cerevisiae) [µM] | MIC (S. cerevisiae) [µM] | viability at 0.4 µM [1, 7] [%] | Doxorubicin 3.5 μM: percent cell survival [1, 8] [%] | Oxaliplatin 100 μM: percent cell survival [1, 9] [%] | Paclitaxel 50 μM: percent cell survival [1, 10] [%] | Vincristine 100 nM: percent cell survival [1, 11] [%] | Viable cell percent change, Chronic/48-hour, Mean (THP-1 cells [2]) [%] | activity relative to AC in the LPS-triggered THP-1 cell death assay, in words (THP-1 cells [2]) | viability at 1 µM [3] [%] | viability at 5 µM [3] [%] | viability at 0.4 µM [4] [%] | MIC (Trichophyton rubrum) [µM] | MIC [5] [µM] | IC50 [5] [µM] | also measured
c1ccc(OCCCCCCCCNc2ccnc3ccccc23)cc1 [AN, N-(8-Phenoxyoctyl)quinolin-4-amine] | 19.1 | 24.3 (≈ 8.45 µg/mL) | 75.9 | 28.2 | 24.7 | 45.8 | 67.3 | 31.66 | equivalent activity to AC at both the 5-hour and 48-hour time points | 26.6 | 50.3 | 75.9 | 18 (≈ 6.27 µg/mL) |  |  | 
CCCCCCc1ccc(Nc2ccnc3ccccc23)cc1 [AO, N-(4-Hexylphenyl)quinolin-4-amine] |  |  | 35 | 80.7 | 91 | 93.1 | 91.1 | 25.19 |  | 28.9 | 18.6 | 35 | > 40 | 84.9 (≈ 25.9 µg/mL) | 34.7 | 
CCCCCCOC(=O)c1ccc(Nc2ccnc3ccccc23)cc1 [AP, Hexyl 4-(quinolin-4-ylamino)benzoate] | 26.3 | 46.5 (≈ 16.2 µg/mL) |  |  |  |  |  | 37.38 |  | 110 | 246 |  | ~40 (≈ 13.9 µg/mL) | 42 (≈ 14.6 µg/mL) | 25 | 
CCCCCCNC(=O)c1ccc(Nc2ccnc3ccccc23)cc1 [AQ, N-Hexyl-4-(quinolin-4-ylamino)benzamide] |  |  |  |  |  |  |  | 24.71 |  | 94.8 | 92.7 |  | > 40 |  | 41.2 | 
CCCCCCOc1ccc(Nc2ccnc3ccccc23)c(F)c1 [BL, N-[2-Fluoro-4-(hexyloxy)phenyl]quinolin-4-amine] |  |  | 106 | 135.5 | 120 | 141.4 | 111.2 | 32.33 |  |  |  | 106 | > 40 | 44.8 (≈ 15.2 µg/mL) | 33.5 | 
CCCCCCCCn1cnc2cnc3ccccc3c21 [BP, 1-Octyl-1H-imidazo[4,5-c]quinoline] | 35.6 | 50.8 (≈ 14.3 µg/mL) |  |  |  |  |  |  |  | 33.6 | 23.3 |  | 12 (≈ 3.38 µg/mL) | 90.6 (≈ 25.5 µg/mL) | 28.8 | viability at 0.5 µM ([1]; Homo sapiens, compound 0.5 μM alone, Wst1, vehicle = 100, read-out: No Chemo: percent cell survival): 50.5%; Doxorubicin 3.5 μM: percent cell survival ([1]; compound 0.5 μM + doxorubicin 3.5 μM): 79.1%; Oxaliplatin 100 μM: percent cell survival ([1]; compound 0.5 μM + oxaliplatin 100 μM): 113.6%; Paclitaxel 50 μM: percent cell survival ([1]; compound 0.5 μM + paclitaxel 50 μM): 95.1%; Vincristine 100 nM: percent cell survival ([1]; compound 0.5 μM + vincristine 100 nM): 93%; viability at 0.5 µM ([4]; 0.5 μM): 50.5%
COCCCCCCCCNc1ccnc2ccccc12 [CJ, N-(8-Methoxyoctyl)quinolin-4-amine] |  |  | 53.7 | 18.9 | 19.7 | 51.7 | 16.9 | 15.44 | more active than AC at the chronic/48-hour time point | 22.6 | 24.1 | 53.7 |  |  |  | Reduction in viable THP-1 cell count (percent change) from 0 hours, Mean ± SE (THP-1 cells [6]; Compound (0.1 μM), No LPS): −5.53 ± 3.89%; Reduction in viable THP-1 cell count (percent change) from 0 hours, Mean ± SE (THP-1 cells [6]; Compound (0.1 μM), Plus LPS): −30.15 ± 4.41%; Reduction in viable THP-1 cell count (percent change) from 0 hours, Mean ± SE (THP-1 cells [6]; Compound (1.0 μM), No LPS): −6.99 ± 1.55%; Reduction in viable THP-1 cell count (percent change) from 0 hours, Mean ± SE (THP-1 cells [6]; Compound (1.0 μM), Plus LPS): −41.62 ± 1.80%; ability to inactivate pro-inflammatory THP-1 cells, in words (relative to benchmark AC) (THP-1 cells [6]): higher activity than the active benchmark compound AC
COc1ccc(OCCCCCCNc2ccnc3ccccc23)cc1 [Compound CX, N-[6-(4-Methoxyphenoxy)hexyl]quinolin-4-amine] |  |  | 45.9 | 21.7 | 22.2 | 48.2 | 38.1 | 8.50 | more active than AC at the chronic/48-hour time point | 25.1 | 20.7 | 45.9 |  |  |  | Reduction in viable THP-1 cell count (percent change) from 0 hours, Mean ± SE (THP-1 cells [6]; Compound (0.1 μM), No LPS): −8.00 ± 1.41%; Reduction in viable THP-1 cell count (percent change) from 0 hours, Mean ± SE (THP-1 cells [6]; Compound (0.1 μM), Plus LPS): −38.09 ± 0.41%; Reduction in viable THP-1 cell count (percent change) from 0 hours, Mean ± SE (THP-1 cells [6]; Compound (1.0 μM), No LPS): −9.20 ± 3.09%; Reduction in viable THP-1 cell count (percent change) from 0 hours, Mean ± SE (THP-1 cells [6]; Compound (1.0 μM), Plus LPS): −49.57 ± 2.44%; ability to inactivate pro-inflammatory THP-1 cells, in words (relative to benchmark AC) (THP-1 cells [6]): higher activity than the active benchmark compound AC
